From patent US10081602B2, “Opioid agonists and uses thereof” (Nektar Therapeutics, priority 2013, dated 2018) come the findings set out here.

In data set [1] the target is human mu (MOR) opioid receptor (Homo sapiens (Human), UniProt P35372). Kind of data set: Radioligand competition binding assay, mu opioid receptor. Conditions: 10 uM, [3H]Naloxone; read-out: Mu receptor % inhibition at single concentration. As to the method: The binding affinities of certain compounds of the present invention were evaluated using radioligand binding assays in membranes prepared from CHO-K1 cells expressing recombinant human kappa (KOR) or mu (MOR) opioid receptors.
Competition binding experiments were conducted by incubating membrane protein to equilibrium in triplicate in the presence of a fixed concentration of radioligand and increasing concentrations of test compound for evaluation of binding to KOR or single concentration (10 μM) of test compound for evaluation of binding to MOR in 101 μL final volume. The radioligands used were specific for each receptor type, and the assay conditions are described in Table 1. Following incubations, the membranes were rapidly filtered through GF/B filter plate (presoaked with 0.5% polyethyleneimine), washed five times with cold 50 mM Tris-HCl, pH 7.5, and the bound radioactivity was then measured by liquid scintillation counting. Non-specific binding was measured in the presence of excess ligand; this value was subtracted from the total binding to yield the specific binding at each test concentration.
Ki (affinity of test compound) was obtained using the Cheng Prusoff correction using experimental Kd (affinity of radioligand) values that were previously determined under these assay conditions. For MOR binding, compounds were tested at one concentration, 10 μM, to evaluate its ability to inhibit specific radioligand binding. The values are expressed as percent inhibition of specific binding and greater than 50% inhibition of binding was considered to be significant.
With respect to determining MOR binding, an approach similar to one used for KOR binding was used.
For orientation: Displacement assays read how much labelled ligand stays bound in the presence of the test substance.

Data set [2] concerns acetic acid-induced writhing (visceral pain) in mice. Kind of data set: Acetic acid writhing (AAW) analgesic assay. The data set is classed as in vivo. As to the method:
An analgesic assay was used to determine whether a given compound can reduce and/or prevent visceral pain in mice. The assay utilizes Swiss Albino or CD-1 male mice (5-10 mice per group), each mouse being approximately 0.015-0.030 kg on the study day. Mice were treated according to standard protocols.
The animal was given an intraperitoneal (IP) injection of an irritant (acetic acid) that induces “writhing” which may include: contractions of the abdomen, twisting and turning of the trunk, arching of the back and the extension of the hindlimbs. Mice are given a single IP injection (0.1 mL/10 g bodyweight) of a 0.5% acetic acid solution. After the injection the animals were returned to their observation enclosure and their behavior was observed. Contractions were counted between 0 and 20 minutes after the injection. The animals were used once. In certain instances, the test articles were administered at multiple doses to determine a dose response curve.
Table 4 provides the results for certain compounds of the present invention that were administered subcutaneously. Table 5 provides the results for certain compounds of the present invention that were administered orally.
(In general: In writhing tests, fewer writhes than in controls are read as antinociception.)

The subject of data set [3] is locomotor activity of mice. The data set can be described thus: Locomotor activity. The format is in vivo. As to conditions: oral, 30 min predose, 20 min observation. Here is the method:
Male Swiss Albino mice were treated orally with vehicle (0.5% HPMC+0.1% Tween80), ketazocine, Compound 12 (0.3, 3 and 30 mg/kg) or Compound 20 (0.3, 3 and 30 mg/kg) thirty minutes prior to placement in the locomotor activity chamber. Total distance travelled was measured over the twenty minute observation time following placement in the locomotor activity chamber. Data are normalized relative to percent distance travelled in the vehicle group. The efficacy of Compound 12 (reported as percent distance travelled in comparison to vehicle) was 88.85%, 83.74% and 0.08% at 0.3, 3 and 30 mg/kg dosages, respectively, while the locomotor activity of Compound 20 (reported as percent distance travelled in comparison to vehicle) was 100%, 88% and 0.03% at 0.3, 3 and 30 mg/kg dosages, respectively.

“And” between values parts separate entries of the source, which are not always exact repeats. Identical values can stand only once.

For the molecule `COCCOCCOCCOCCOCCNc1ccc2c(c1)[C@]1(C)CCN(CC3CC3)[C@H](C2=O)[C@@H]1C` [Example 2, (2S,6R,11R)-3-(Cyclopropylmethyl)-6,11-dimethyl-8-(2,5,8,11,14-pentaoxahexadecan-16-ylamino)-3,4,5,6-tetrahydro-2,6-methano-3-benzazocin-1(2H)-One], the inhibition at 10 µM in data set [1] stood at 85.5%.
With `COCCOCCOCCOCCOCCOc1ccccc1Nc1ccc2c(c1)[C@]1(C)CCN(CC3CC3)[C@H](C2=O)[C@@H]1C` [Example 7, (2S,6R,11R)-8-((2-(2,5,8,11,14-pentaoxahexadecan-16-yloxy)phenyl)amino)-3-(cyclopropylmethyl)-6,11-dimethyl-3,4,5,6-tetrahydro-2,6-methanobenzo[d]azocin-1(2H)-one], the “AAW % Efficacy” value came out at 38.8% in data set [2] (subcutaneous, 3 mg/kg) and 84.8% in data set [2] (subcutaneous, 30 mg/kg).
Regarding `COCCOCCOCCOCCOCCOc1cccc(Nc2ccc3c(c2)[C@]2(C)CCN(CC4CC4)[C@H](C3=O)[C@@H]2C)c1` [Example 8, (2S,6R,11R)-8-((3-(2,5,8,11,14-pentaoxahexadecan-16-yloxy)phenyl)amino)-3-(cyclopropylmethyl)-6,11-dimethyl-3,4,5,6-tetrahydro-2,6-methanobenzo[d]azocin-1(2H)-one], the inhibition in vivo at 30 mg/kg in data set [2] (Mus musculus, sc, subcutaneous, 30 mg/kg, read-out: AAW % Efficacy) is 100%. Further, in data set [2] (subcutaneous, 3 mg/kg), the “AAW % Efficacy” value is 38.0%.
As for `COCCOCCOCCOCCOCCOc1ccc(Nc2ccc3c(c2)[C@]2(C)CCN(CC4CC4)[C@H](C3=O)[C@@H]2C)cc1` [Example 9, (2S,6R,11R)-8-((4-(2,5,8,11,14-pentaoxahexadecan-16-yloxy)phenyl)amino)-3-(cyclopropylmethyl)-6,11-dimethyl-3,4,5,6-tetrahydro-2,6-methanobenzo[d]azocin-1(2H)-one], the “AAW % Efficacy” value is 38.5% in data set [2] (oral, 10 mg/kg); 13.3% in data set [2] (subcutaneous, 0.3 mg/kg); 67.8% and 61.4% in data set [2] (subcutaneous, 3 mg/kg); 95.4% in data set [2] (subcutaneous, 10 mg/kg); 99.2% in data set [2] (subcutaneous, 30 mg/kg).
As to `COCCOCCOCCOCCOCCNc1ccc(Nc2ccc3c(c2)[C@]2(C)CCN(CC4CC4)[C@H](C3=O)[C@@H]2C)cc1` [Example 10, (2S,6R,11R)-8-((4-(2,5,8,11,14-pentaoxahexadecan-16-ylamino)phenyl)amino)-3 (cyclopropylmethyl)-6,11-dimethyl-3,4,5,6-tetrahydro-2,6-methanobenzo[d]azocin-1(2H)-one], the “AAW % Efficacy” value in data set [2] (subcutaneous, 3 mg/kg) was determined as 34.0%; in data set [2] (subcutaneous, 30 mg/kg) it was 100.0%.
Regarding `COCCOCCOCCOCCOCCNc1cccc(Nc2ccc3c(c2)[C@]2(C)CCN(CC4CC4)[C@H](C3=O)[C@@H]2C)c1` [Example 11, (2S,6R,11R)-8-((3-(2,5,8,11,14-pentaoxahexadecan-16-ylamino)phenyl)amino)-3-(cyclopropylmethyl)-6,11-dimethyl-3,4,5,6-tetrahydro-2,6-methanobenzo[d]azocin-1(2H)-One], the “AAW % Efficacy” value is 31.2% in data set [2] (oral, 10 mg/kg); 21.1% in data set [2] (subcutaneous, 0.3 mg/kg); 62.2% and 64.3% in data set [2] (subcutaneous, 3 mg/kg); 99.1% in data set [2] (subcutaneous, 10 mg/kg); 100.0% in data set [2] (subcutaneous, 30 mg/kg).
As to `COCCOCCOCCOCCOCCNc1ccc(Nc2ccc3c(c2)[C@]2(C)CCN(CC4CC4)[C@H](C3=O)[C@@H]2C)cc1` [Example 12, (2S,6R,11R)-8-((4-(2,5,8,11,14-pentaoxahexadecan-16-ylamino)phenyl)amino)-3-(cyclopropylmethyl)-6,11-dimethyl-3,4,5,6-tetrahydro-2,6-methanobenzo[d]azocin-1(2H)-one], the “AAW % Efficacy” value is 22.5% in data set [2] (oral, 0.1 mg/kg); 56.9% in data set [2] (oral, 1 mg/kg); 97.2% and 90.2% in data set [2] (oral, 10 mg/kg); 100.0% in data set [2] (subcutaneous, 30 mg/kg). For the same molecule, the “percent distance travelled in comparison to vehicle” value in data set [3] (0.3 mg/kg) is on record as 88.85%; in data set [3] (3 mg/kg) it was 83.74%; in data set [3] (30 mg/kg), 0.08%.
With `COCCOCCOCCOCCOCCNc1nc2cc3c(cc2s1)C(=O)[C@@H]1[C@H](C)[C@@]3(C)CCN1CC1CC1` [Example 13, (6S,10R,12R)-2-(2,5,8,11,14-pentaoxahexadecan-16-ylamino)-7-(cyclopropylmethyl)-10,12-dimethyl-7,8,9,10-tetrahydro-6,10-methanothiazolo[4′,5′:4,5]benzo[1,2-d]azocin-5(6H)-one], the “AAW % Efficacy” value in data set [2] (subcutaneous, 10 mg/kg) was 40.2%.
Take `COCCOCCN1CC[C@@]2(C)c3cc(O)ccc3C(=O)[C@@H]1[C@@H]2C` [Example 14, (2S,6R,11R)-8-hydroxy-3-(2-(2-methoxyethoxy)ethyl)-6,11-dimethyl-3,4,5,6-tetrahydro-2,6-methanobenzo[d]azocin-1(2H)-One]: the “AAW % Efficacy” value in data set [2] (subcutaneous, 10 mg/kg) worked out at 13.2%.
The same measure, in the same setting: the same measure for `COCCOCC(=O)Nc1ccc2c(c1)[C@]1(C)CCN(CC3CC3)[C@H](C2=O)[C@@H]1C` [Example 15, N-((2S,6R,11R)-3-(cyclopropylmethyl)-6,11-dimethyl-1-oxo-1,2,3,4,5,6-hexahydro-2,6-methanobenzo[d]azocin-8-yl)-2-(2-methoxyethoxy)acetamide]: 100.0%.
With `COCCNC(=O)c1ccc2c(c1)[C@]1(C)CCN(CC3CC3)[C@H](C2=O)[C@@H]1C` [Example 16, (2S,6R,11R)-3-(cyclopropylmethyl)-N-(2-methoxyethyl)-6,11-dimethyl-1-oxo-1,2,3,4,5,6-hexahydro-2,6-methanobenzo[d]azocine-8-carboxamide], in data set [2] (subcutaneous, 10 mg/kg), the “AAW % Efficacy” value is reported as 26.4%.
Still for that read-out and setting: the same measure for `COCCOCC(=O)NCc1ccc2c(c1)[C@]1(C)CCN(CC3CC3)C(C2=O)[C@@H]1C` [Example 17, N,N-(((2S,6R,11R)-3-(cyclopropylmethyl)-6,11-dimethyl-1-oxo-1,2,3,4,5,6-hexahydro-2,6-methanobenzo[d]azocin-8-yl)methyl)-2-(2-methoxyethoxy)acetamide]: 23.3%.
Still for that read-out and setting: the same measure for `COCCOCCNCc1ccc2c(c1)[C@]1(C)CCN(CC3CC3)[C@H](C2=O)[C@@H]1C` [Example 18, (2S,6R,11R)-3-(cyclopropylmethyl)-8-(((2-(2-methoxyethoxy)ethyl)amino)methyl)-6,11-dimethyl-3,4,5,6-tetrahydro-2,6-methanobenzo[d]azocin-1(2H)-one]: 31.9%; for `COCCOCCOCCOCCOCCOc1c(O)ccc2c1[C@]1(C)CCN(CC3CC3)[C@H](C2=O)[C@@H]1C` [Example 19, (2S,6R,11R)-7-(2,5,8,11,14-pentaoxahexadecan-16-yloxy)-3-(cyclopropylmethyl)-8-hydroxy-6,11-dimethyl-3,4,5,6-tetrahydro-2,6-methanobenzo[d]azocin-1(2H)-one]: 31.6%.
In the case of `C[C@H]1[C@H]2C(=O)c3ccc(Nc4ccc(NCCOCCOCCOCCOCCOC(F)(F)F)cc4)cc3[C@]1(C)CCN2CC1CC1` [Example 20, (2S,6R,11R)-3-(cyclopropylmethyl)-6,11-dimethyl-8-((4-((1,1,1-trifluoro-2,5,8,11,14-pentaoxahexadecan-16-yl)amino)phenyl)amino)-3,4,5,6-tetrahydro-2,6-methanobenzo[d]azocin-1(2H)-One], the “AAW % Efficacy” value was determined as 39.1% in data set [2] (oral, 0.3 mg/kg); 79.5% in data set [2] (oral, 3 mg/kg); 100.0% in data set [2] (oral, 30 mg/kg); 88.1% in data set [2] (subcutaneous, 10 mg/kg). The “percent distance travelled in comparison to vehicle” value in data set [3] (0.3 mg/kg) is on record as 100%; in data set [3] (3 mg/kg), 88%; in data set [3] (30 mg/kg), 0.03%.
Turning to `C[C@H]1[C@H]2C(=O)c3cc4sc(N)nc4cc3[C@]1(C)CCN2CC1CC1` [Step 1 of 13, (6S,10R,12R)-2-amino-7-(cyclopropylmethyl)-10,12-dimethyl-7,8,9,10-tetrahydro-6,10-methanothiazolo[4′,5′:4,5]benzo[1,2-d]azocin-5(6H)-One], in data set [2] (subcutaneous, 10 mg/kg), the “AAW % Efficacy” value was 100%.
